Test results reported in patent US9464084B2, “P2X7 modulators” (Janssen Pharmaceutica NV, priority 2013, dated 2016).

Tests used:
P2X7 [1] = biological target: T1, P2X7 (Homo sapiens (Human), UniProt Q99572); assay: P2X7 antagonism in human PBMCs (LPS + Bz-ATP induced IL-1β release, ELISA); format: cell-based; settings: LPS 30 ng/ml, Bz-ATP 0.5 mM; for PBMC 10 μM (% control): compound 10 μM; for PBMC 1 μM (% control): compound 1 μM;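 on all read-outs here: PBMCs from donor human blood, with a further 1.5 h incubation of the cells in the assay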
P2X7 [2] = biological target: T1, P2X7; assay: Radioligand binding, tritiated A-804598, human P2X7-1321N1 cell membranes; settings: 1 hour at 4° C.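 Further: ki obtained from the binding IC50 after correction for tracer concentration and tracer affinity.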
Experimental: On the day of the experiment, cell membrane preparations were made according to standard published methods. […] The assay was terminated by filtration (GF/B filters pre-soaked with 0.3% PEI) and washed with washing buffer (Tris-HCl 50 mM). The IC50 generated in the binding assay was corrected for tracer concentration and affinity of the tracer to derive at the affinity (Ki) of the test compounds.

P2X7 [3] = biological target: T1, P2X7; assay: Ca2+ flux (FLIPR) in 1321N1 cells expressing recombinant human P2X7 channel; format: cell-based; settings: 250 μM BzATP;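 further: Calcium-4 dye-loaded cells exposed to compound for 30 min before agonist addition, fluorescence change read 180 s after agonist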
Experimental: (§1) Cells were seeded at a density of 25000 cells/well (96-well clear bottom black walled plates) in 100 μl volume/well. On the day of the experiment, cell plates were washed with assay buffer, containing (in mM): 130 NaCl, 2 KCl, 1 CaCl2, 1 MgCl2, 10 HEPES, 5 glucose; pH 7.40 and 300 mOs. After the wash, cells were loaded with the Calcium-4 dye (Molecular Device) and incubated in the dark for 60 minutes. Test compounds were prepared at 250× the test concentration in neat DMSO. Intermediate 96-well compound plates were prepared by transferring 1.2 μL of the compound into 300 μL of assay buffer. A further 3× dilution occurred when transferring 50 μL/well of the compound plate to 100 μL/well in the cell plate. Cells were incubated with test compounds and dye for 30 minutes. […] The fluorescence change was measured 180 seconds after adding the agonist.

rat P2X7 = rat P2X7 (Rattus norvegicus (Rat), UniProt Q64663); assay: Ca2+ flux (FLIPR) in 1321N1 cells expressing recombinant rat P2X7 channel; format: cell-based; settings: 250 μM BzATP;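 further: Calcium-4 dye fluorescence change read 180 s after agonist addition, following 30 min cell preincubation with test compound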
rat P2X7, sequence (Q64663 whole entry): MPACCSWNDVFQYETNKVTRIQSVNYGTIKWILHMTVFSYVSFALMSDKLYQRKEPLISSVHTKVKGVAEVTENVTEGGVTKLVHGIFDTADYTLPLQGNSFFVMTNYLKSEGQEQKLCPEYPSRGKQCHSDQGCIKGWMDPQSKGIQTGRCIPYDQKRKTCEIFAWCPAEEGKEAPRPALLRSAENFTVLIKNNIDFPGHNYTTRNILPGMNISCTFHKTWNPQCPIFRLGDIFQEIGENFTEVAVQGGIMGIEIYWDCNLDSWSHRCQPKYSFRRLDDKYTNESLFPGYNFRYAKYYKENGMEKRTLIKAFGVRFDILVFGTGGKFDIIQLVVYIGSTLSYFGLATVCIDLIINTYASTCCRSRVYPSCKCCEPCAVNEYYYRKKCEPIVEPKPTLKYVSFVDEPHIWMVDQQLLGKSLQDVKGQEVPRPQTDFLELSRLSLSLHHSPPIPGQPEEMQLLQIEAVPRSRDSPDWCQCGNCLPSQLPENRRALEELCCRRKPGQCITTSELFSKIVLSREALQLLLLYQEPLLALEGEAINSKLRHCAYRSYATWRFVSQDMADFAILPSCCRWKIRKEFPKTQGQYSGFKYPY
Experimental: as §1

T1 sequence (Q99572 whole entry): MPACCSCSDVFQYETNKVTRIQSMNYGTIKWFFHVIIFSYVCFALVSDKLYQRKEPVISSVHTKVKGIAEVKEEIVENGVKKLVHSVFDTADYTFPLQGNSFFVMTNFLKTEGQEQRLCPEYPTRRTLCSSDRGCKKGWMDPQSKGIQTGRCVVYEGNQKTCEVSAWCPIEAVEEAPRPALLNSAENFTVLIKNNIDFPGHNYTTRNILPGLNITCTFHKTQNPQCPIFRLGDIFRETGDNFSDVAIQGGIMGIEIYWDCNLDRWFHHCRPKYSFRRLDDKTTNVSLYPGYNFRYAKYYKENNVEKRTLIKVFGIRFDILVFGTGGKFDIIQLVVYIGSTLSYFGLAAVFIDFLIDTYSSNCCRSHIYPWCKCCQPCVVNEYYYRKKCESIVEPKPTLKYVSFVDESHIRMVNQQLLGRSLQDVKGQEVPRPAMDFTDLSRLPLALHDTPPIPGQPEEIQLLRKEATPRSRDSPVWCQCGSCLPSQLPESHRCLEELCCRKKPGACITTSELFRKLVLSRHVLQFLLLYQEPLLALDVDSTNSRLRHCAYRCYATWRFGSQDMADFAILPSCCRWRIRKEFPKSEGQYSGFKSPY

| PBMC 10 μM (% control) (P2X7 [1]) | Ki (P2X7 [2]) | IC50 (P2X7 [3]) | PBMC 1 μM (% control) (P2X7 [1]) | IC50 (rat P2X7) | Structure (SMILES) |
| --- | --- | --- | --- | --- | --- |
| 7.3 % control | 31.6 nM | 8 nM |  |  | CC1Cc2c(nnn2-c2cc(F)ccn2)CN1C(=O)c1cccc(C(F)(F)F)c1Cl (stereo not shown) [Example 176, (2-Chloro-3-(trifluoromethyl)phenyl)(1-(4-fluoropyridin-2-yl)-6-methyl-6,7-dihydro-1H-[1,2,3]triazolo[4,5-c]pyridin-5(4H)-yl)methanone] |
|  | 182 nM | 10 nM | −15.1 % control |  | O=C(c1cccc(C(F)(F)F)c1Cl)N1CCc2c(-c3ccc(F)cc3)n[nH]c2C1 [Example 110, 6-{[2-Chloro-3-(trifluoromethyl)phenyl]carbonyl}-3-(4-fluorophenyl)-4,5,6,7-tetrahydro-2H-pyrazolo[3,4-c]pyridine] |
| 46.7 % control | 794 nM | 718 nM |  |  | O=C(c1cccc(C(F)(F)F)c1F)N1CCc2c(nc(C(F)(F)F)n2-c2ccccc2)C1 [Example 57, 5-{[2-Fluoro-3-(trifluoromethyl)phenyl]carbonyl}-1-phenyl-2-(trifluoromethyl)-4,5,6,7-tetrahydro-1H-imidazo[4,5-c]pyridine] |
| −9.2 % control | 31.6 nM | 14.3 nM |  |  | O=C(c1cccc(C(F)(F)F)c1Cl)N1CCc2c(nnn2-c2ncc(F)cn2)C1 [Example 64, 5-{[2-Chloro-3-(trifluoromethyl)phenyl]carbonyl}-1-(5-fluoropyrimidin-2-yl)-4,5,6,7-tetrahydro-1H-[1,2,3]triazolo[4,5-c]pyridine] |
| 1.7 % control | 100 nM | 48.2 nM |  |  | O=C(c1cccc(C(F)(F)F)c1Cl)N1CCc2c(nnn2-c2cccc(F)n2)C1 [Example 135, (2-Chloro-3-(trifluoromethyl)phenyl)(1-(6-fluoropyridin-2-yl)-6,7-dihydro-1H-[1,2,3]triazolo[4,5-c]pyridin-5(4H)-yl)methanone] |
| 8.4 % control | 100 nM | 55.7 nM |  |  | O=C(c1cccc(Cl)c1Cl)N1CCc2c(ncn2-c2ccn[nH]2)C1 [Example 60, 5-[(2,3-Dichlorophenyl)carbonyl]-1-(1H-pyrazol-5-yl)-4,5,6,7-tetrahydro-1H-imidazo[4,5-c]pyridine] |
|  | 75.9 nM | 6.1 nM | 11.5 % control |  | O=C(c1cccc(C(F)(F)F)c1Cl)N1CCc2c(ncn2-c2ccccn2)C1 [Example 1, (2-Chloro-3-(trifluoromethyl)phenyl)(1-(pyridin-2-yl)-6,7-dihydro-1H-imidazo[4,5-c]pyridin-5(4H)-yl)methanone] |
|  | 42.7 nM | 9.4 nM | 14.3 % control |  | O=C(c1cccc(C(F)(F)F)c1Cl)N1CCc2c(ncn2-c2cnccn2)C1 [Example 6, (2-Chloro-3-(trifluoromethyl)phenyl)(1-(pyrazin-2-yl)-6,7-dihydro-1H-imidazo[4,5-c]pyridin-5(4H)-yl)methanone] |
| 6.1 % control | 2.5 nM |  |  |  | C[C@H]1Cc2c(nnn2-c2ncc(F)cn2)CN1C(=O)c1ccc(Cl)c(F)c1Cl (single isomer, unassigned) [Example 218, (6S*)-5-[(2,4-Dichloro-3-fluorophenyl)carbonyl]-1-(5-fluoropyrimidin-2-yl)-6-methyl-4,5,6,7-tetrahydro-1H-[1,2,3]triazolo[4,5-c]pyridine] |
|  | 158 nM | 87.5 nM | 9.1 % control |  | CCC1c2ncn(-c3cnccn3)c2CCN1C(=O)c1cccc(C(F)(F)F)c1Cl (stereo not shown) [Example 15, (2-Chloro-3-(trifluoromethyl)phenyl)(4-ethyl-1-(pyrazin-2-yl)-6,7-dihydro-1H-imidazo[4,5-c]pyridin-5(4H)-yl)methanone] |
| 33.8 % control | 10 nM | 2 nM |  |  | C[C@H]1c2nnn(-c3ccccn3)c2CCN1C(=O)c1ccc(F)c(Cl)c1Cl (single isomer, unassigned) [Example 142, (S*)-(2,3-Dichloro-4-fluorophenyl)(4-methyl-1-(pyridin-2-yl)-6,7-dihydro-1H-[1,2,3]triazolo[4,5-c]pyridin-5(4H)-yl)methanone] |
|  | 100 nM |  | 1.1 % control | 794 nM | Cn1nc(-c2cccnc2)c2c1CN(C(=O)c1cccc(C(F)(F)F)c1Cl)CC2 [Example 108, 6-{[2-Chloro-3-(trifluoromethyl)phenyl]carbonyl}-1-methyl-3-pyridin-3-yl-4,5,6,7-tetrahydro-1H-pyrazolo[3,4-c]pyridine] |
| −11.0 % control | 178 nM | 148 nM |  |  | Cc1nc2c(n1-c1ccccc1)CCN(C(=O)c1cccc(Cl)c1Cl)C2 [Example 331, (2,3-dichlorophenyl)(2-methyl-1-phenyl-6,7-dihydro-1H-imidazo[4,5-c]pyridin-5(4H)-yl)methanone] |
| 1.6 % control | 126 nM | 78.5 nM |  |  | CC1c2ncn(-c3ncccc3F)c2CCN1C(=O)c1cccc(C(F)(F)F)c1Cl (stereo not shown) [Example 21, (2-Chloro-3-(trifluoromethyl)phenyl)(1-(3-fluoropyridin-2-yl)-4-methyl-6,7-dihydro-1H-imidazo[4,5-c]pyridin-5(4H)-yl)methanone] |
| 9.5 % control | 39.8 nM | 157 nM |  |  | Cc1c(C(=O)N2CCc3c(ncn3-c3ccc(F)cn3)C2)cccc1C(F)(F)F [Example 312, (1-(5-fluoropyridin-2-yl)-6,7-dihydro-1H-imidazo[4,5-c]pyridin-5(4H)-yl)(2-methyl-3-(trifluoromethyl)phenyl)methanone] |
| 0.6 % control | 12.6 nM |  |  |  | CC1Cc2c(nnn2-c2ncc(F)cn2)CN1C(=O)c1ccc(Cl)c(F)c1Cl (stereo not shown) [Example 216, 5-[(2,4-Dichloro-3-fluorophenyl)carbonyl]-1-(5-fluoropyrimidin-2-yl)-6-methyl-4,5,6,7-tetrahydro-1H-[1,2,3]triazolo[4,5-c]pyridine] |
|  | 398 nM |  | 31.7 % control | 6.3 nM | O=C(c1cccc(C(F)(F)F)c1Cl)N1CCc2c(nnn2-c2cnccn2)C1c1ccccc1 (stereo not shown) [Example 77, 5-{[2-Chloro-3-(trifluoromethyl)phenyl]carbonyl}-4-phenyl-1-pyrazin-2-yl-4,5,6,7-tetrahydro-1H-[1,2,3]triazolo[4,5-c]pyridine] |
|  |  | 25.1 nM | 10.1 % control | 398 nM | CC1c2ncn(-c3cnccn3)c2C=CN1C(=O)c1cccc(C(F)(F)F)c1Cl (stereo not shown) [Example 56, 5-{[2-Chloro-3-(trifluoromethyl)phenyl]carbonyl}-4-methyl-1-pyrazin-2-yl-4,5-dihydro-1H-imidazo[4,5-c]pyridine] |
| 22.9 % control |  | > 10000 nM |  | > 10000 nM | CC1c2[nH]nc(C(F)(F)F)c2CCN1C(=O)c1cccc(C(F)(F)F)c1Cl (stereo not shown) [Example 308, (2-chloro-3-(trifluoromethyl)phenyl)(7-methyl-3-(trifluoromethyl)-4,5-dihydro-1H-pyrazolo[3,4-c]pyridin-6(7H)-yl)methanone] |
| 33.8 % control |  | > 10000 nM |  | > 10000 nM | O=C(c1cccc(Cl)c1Cl)N1CCc2c(n[nH]c2-c2cncnc2)C1 [Example 330, (2,3-dichlorophenyl)(3-(pyrimidin-5-yl)-4,5-dihydro-2H-pyrazolo[3,4-c]pyridin-6(7H)-yl)methanone] |
|  |  | 104 nM | 8.5 % control | 456 nM | CC(C)C1c2ncn(-c3cnccn3)c2CCN1C(=O)c1cccc(C(F)(F)F)c1Cl (stereo not shown) [Example 16, (2-Chloro-3-(trifluoromethyl)phenyl)(4-isopropyl-1-(pyrazin-2-yl)-6,7-dihydro-1H-imidazo[4,5-c]pyridin-5(4H)-yl)methanone] |
| −27.6 % control |  | 1190 nM |  | 2410 nM | CC1c2c(nnn2-c2ccccc2)CCN1C(=O)c1cccc(C(F)(F)F)c1Cl (stereo not shown) [Example 289, (2-chloro-3-(trifluoromethyl)phenyl)(4-methyl-3-phenyl-6,7-dihydro-3H-[1,2,3]triazolo[4,5-c]pyridin-5(4H)-yl)methanone] |
| 7.1 % control |  | 2390 nM |  | > 10000 nM | CC1c2ncn(-c3ccc(F)cn3)c2CCN1C(=O)c1ccc(F)cc1Cl (stereo not shown) [Example 256, (2-chloro-4-fluorophenyl)(1-(5-fluoropyridin-2-yl)-4-methyl-6,7-dihydro-1H-imidazo[4,5-c]pyridin-5(4H)-yl)methanone] |
| −59.9 % control |  | 600 nM |  | 1220 nM | CC1Cc2c(-c3ccn[nH]3)n[nH]c2CN1C(=O)c1ccc(Cl)cc1Cl (stereo not shown) [Example 268, (2,4-dichlorophenyl)(5-methyl-3-(1H-pyrazol-5-yl)-4,5-dihydro-1H-pyrazolo[3,4-c]pyridin-6(7H)-yl)methanone] |
| −0.6 % control |  | 16.5 nM |  | 10.2 nM | Cc1c(C(=O)N2Cc3nnn(-c4cc[nH]n4)c3CC2C)cccc1C(F)(F)F (stereo not shown) [Example 154, (6-methyl-1-(1H-pyrazol-3-yl)-6,7-dihydro-1H-[1,2,3]triazolo[4,5-c]pyridin-5(4H)-yl)(2-methyl-3-(trifluoromethyl)phenyl)methanone] |
| 23.1 % control |  | 2110 nM |  | > 10000 nM | Cn1nccc1-n1nnc2c1CCN(C(=O)c1cccc(C(F)(F)F)c1Cl)C2 [Example 128, (2-Chloro-3-(trifluoromethyl)phenyl)(1-(1-methyl-1H-pyrazol-5-yl)-6,7-dihydro-1H-[1,2,3]triazolo[4,5-c]pyridin-5(4H)-yl)methanone] |
